Measured values from PMC3214178, “High-yield production of aromatic peroxygenase by the agaric fungus Marasmius rotula” (AMB Express, 2011).

Key:
Format in all cases: biochemical
[1] = test system: T1, MroAPO (Marasmius rotula aromatic peroxygenase); experiment: spectrophotometric initial rates, ABTS cation radical at […] nm; Lineweaver-Burk; conditions: 2 mM H2O2, sodium phosphate/citrate buffer pH 4.5, 25°C
T1 construct: native secreted heme-thiolate enzyme purified by FPLC from culture liquid of wild-type fungus

[2] = test system: T1, MroAPO (Marasmius rotula aromatic peroxygenase); experiment: spectrophotometric initial rates, dimeric DMP quinone at […] nm; Lineweaver-Burk; conditions: 2 mM H2O2, sodium phosphate/citrate buffer pH 5.5, 25°C
[3] = test system: T1, MroAPO (Marasmius rotula aromatic peroxygenase); experiment: spectrophotometric initial rates, 1-naphthol at […] nm; Lineweaver-Burk; conditions: H2O2 co-substrate (table note 2 mM; methods give start with 20 μl H2O2 (200 μM)), sodium phosphate/citrate buffer pH 5.5, acetonitrile as substrate solvent, 25°C
[4] = test system: T1, MroAPO (Marasmius rotula aromatic peroxygenase); experiment: spectrophotometric initial rates, veratraldehyde at […] nm; Lineweaver-Burk; conditions: 2 mM H2O2, sodium phosphate/citrate buffer pH 5.5, 25°C

In the case of `CCn1c(=NN=c2sc3cc(S(=O)(=O)O)ccc3n2CC)sc2cc(S(=O)(=O)O)ccc21` [ABTS], the Km [1] is reported as 71 µM.
`COc1cccc(OC)c1O` [DMP] gave a Km [2] of 133 µM.
Compound `c1ccc2ccccc2c1` [Naphthalene] has a Km [3] of 791 µM.
With `COc1ccc(CO)cc1OC` [Veratryl alcohol] the Km [4] was 279 µM.
